How the values were obtained:
Test in all cases: relative viability (nuclei count vs DMSO), 5 days (fraction); higher = more cells survive
Bortezomib + Palbociclib = compound: CC(C)C[C@H](NC(=O)[C@H](Cc1ccccc1)NC(=O)c1cnccn1)B(O)O [Bortezomib] + CC(=O)c1c(C)c2cnc(Nc3ccc(N4CCNCC4)cn3)nc2n(C2CCCC2)c1=O [Palbociclib] (partner 0.5 µM)
Summary of the method: (§1)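 One day after seeding in 1536-well plates, lung cancer cell lines were dosed by pin tool. Dosing was either single-drug or a fixed anchor-drug dose plus five library-drug doses (not always all listed) in √10 steps. After 5 days, nuclei were stained in one fix-and-stain step and counted on 4× images, and relative viability is the nuclei count of treated wells over that of vehicle wells, given as the median of duplicate plates.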

Bortezomib + Pictilisib = compound: CC(C)C[C@H](NC(=O)[C@H](Cc1ccccc1)NC(=O)c1cnccn1)B(O)O [Bortezomib] + CS(=O)(=O)N1CCN(Cc2cc3nc(-c4cccc5[nH]ncc45)nc(N4CCOCC4)c3s2)CC1 [Pictilisib] (partner 1 µM)
Summary of the method: as §1

Obatoclax + Alpelisib = compound: COC1=CC(c2cc3ccccc3[nH]2)=N/C1=C\c1[nH]c(C)cc1C [Obatoclax] + Cc1nc(NC(=O)N2CCC[C@H]2C(N)=O)sc1-c1ccnc(C(C)(C)C(F)(F)F)c1 [Alpelisib] (partner 2 µM)
Summary of the method: as §1

Obatoclax + Dasatinib = compound: COC1=CC(c2cc3ccccc3[nH]2)=N/C1=C\c1[nH]c(C)cc1C [Obatoclax] + Cc1nc(Nc2ncc(C(=O)Nc3c(C)cccc3Cl)s2)cc(N2CCN(CCO)CC2)n1 [Dasatinib] (partner 0.075 µM)
Summary of the method: as §1

Cell Line | relative viability (Bortezomib + Palbociclib; first compound 0.0002 µM) | relative viability (Bortezomib + Palbociclib; first compound 0.000632 µM) | relative viability (Bortezomib + Palbociclib; first compound 0.002 µM) | relative viability (Bortezomib + Palbociclib; first compound 0.006325 µM) | relative viability (Bortezomib + Palbociclib; first compound 0.02 µM) | relative viability (Bortezomib + Pictilisib; first compound 0.0002 µM) | relative viability (Bortezomib + Pictilisib; first compound 0.002 µM) | relative viability (Bortezomib + Pictilisib; first compound 0.006325 µM) | relative viability (Bortezomib + Pictilisib; first compound 0.02 µM) | relative viability (Obatoclax + Alpelisib; first compound 0.01 µM) | relative viability (Obatoclax + Alpelisib; first compound 0.03162 µM) | relative viability (Obatoclax + Alpelisib; first compound 0.1 µM) | relative viability (Obatoclax + Alpelisib; first compound 0.3162 µM) | relative viability (Obatoclax + Alpelisib; first compound 1 µM) | relative viability (Obatoclax + Dasatinib; first compound 0.01 µM) | relative viability (Obatoclax + Dasatinib; first compound 0.03162 µM) | relative viability (Obatoclax + Dasatinib; first compound 0.1 µM) | relative viability (Obatoclax + Dasatinib; first compound 0.3162 µM) | relative viability (Obatoclax + Dasatinib; first compound 1 µM) | relative viability (Bortezomib + Pictilisib; first compound 0.000632 µM)
LC-2-ad | 0.534 | 0.499 | 0.504 | 0.278 | 0.161 | 0.558 | 0.486 | 0.0865 | 0.104 | 0.892 | 0.931 | 0.884 | 0.477 | 0.655 | 0.696 | 0.504 | 0.507 | 0.394 | 0.463 | –
NCI-H596 | – | – | – | – | – | 0.513 | 0.327 | 0.15 | 0.128 | 0.481 | 0.437 | 0.469 | 0.402 | 0.401 | 0.618 | 0.475 | 0.464 | 0.502 | 0.394 | 0.369
NCI-H1437 | 0.305 | 0.35 | 0.319 | 0.135 | 0.118 | 0.41 | 0.434 | 0.0867 | 0.0795 | 0.97 | 0.922 | 0.962 | 1.01 | 0.88 | 0.559 | 0.295 | 0.384 | 0.355 | 0.445 | 0.512
NCI-H727 | 0.751 | 0.603 | 0.623 | 0.684 | 0.23 | 0.34 | 0.329 | 0.192 | 0.106 | 0.575 | 0.578 | 0.405 | 0.475 | 0.245 | 0.438 | 0.287 | 0.512 | 0.39 | 0.348 | 0.345
PC-3 [JPC-3] | 0.521 | 0.583 | 0.413 | 0.285 | 0.227 | 0.795 | 0.804 | 0.281 | 0.26 | 0.968 | 1.01 | 0.999 | 0.975 | 1.1 | 0.963 | 1.02 | 1.01 | 1.01 | 0.943 | 0.762
SW 1573 | 0.346 | 0.419 | 0.171 | 0.055 | 0.0399 | 0.516 | 0.399 | 0.0724 | 0.0556 | 0.789 | 0.701 | 0.946 | 0.672 | 0.556 | 0.413 | 0.454 | 0.53 | 0.134 | 0.136 | 0.496
NCI-H2228 | 0.587 | 0.843 | 0.72 | 0.0946 | 0.0943 | 0.373 | 0.355 | 0.109 | 0.115 | 0.662 | 0.601 | 0.629 | 0.436 | 0.27 | 0.499 | 0.595 | 0.571 | 0.351 | 0.148 | 0.418
NCI-H1650 | 0.342 | 0.312 | 0.136 | 0.117 | 0.146 | 0.24 | 0.17 | 0.153 | 0.15 | – | – | – | – | – | 0.304 | 0.329 | 0.396 | 0.271 | 0.179 | 0.488
NCI-H1944 | 0.315 | 0.309 | 0.336 | 0.21 | 0.15 | 0.34 | 0.349 | 0.319 | 0.276 | 0.808 | 0.817 | 0.859 | 0.89 | 0.839 | 0.206 | 0.198 | 0.198 | 0.242 | 0.223 | 0.314
NCI-H1792 | 0.628 | 0.593 | 0.494 | 0.637 | 0.375 | 0.29 | 0.192 | 0.306 | 0.175 | 0.746 | 0.658 | – | 0.638 | 0.781 | 0.867 | 0.8 | – | 0.72 | 0.962 | 0.21
COR-L 105 | 0.439 | 0.381 | 0.345 | 0.378 | 0.355 | 0.377 | 0.389 | 0.322 | 0.326 | 1.02 | 1.21 | 0.944 | 0.904 | 0.336 | 0.4 | 0.358 | 0.372 | 0.265 | 0.246 | 0.324
Calu-6 | – | – | – | – | – | 0.829 | 0.726 | 0.102 | 0.0777 | 0.899 | 1.01 | 0.898 | 0.677 | 0.205 | – | – | – | – | – | 0.925
NCI-H2342 | 0.578 | 0.502 | 0.54 | 0.534 | 0.357 | – | – | – | – | – | – | – | – | – | 0.365 | 0.303 | 0.347 | 0.285 | 0.302 | –
NCI-H1299 | – | – | – | – | – | 0.722 | 0.511 | 0.0727 | 0.0315 | 1.01 | 1.1 | 0.985 | 1.04 | 1 | – | – | – | – | – | 0.776
ChaGo-K-1 | 0.956 | 0.903 | 0.942 | 0.382 | 0.136 | – | 0.707 | 0.29 | 0.207 | – | – | – | – | – | 0.637 | 0.582 | 0.502 | 0.584 | 0.644 | –
NCI-H1703 | – | – | – | – | – | 0.259 | 0.146 | 0.128 | 0.121 | 0.41 | 0.344 | 0.412 | 0.321 | 0.276 | – | – | – | – | – | 0.208
NCI-H522 | 0.932 | 0.982 | 1.1 | 0.35 | 0.343 | – | – | – | – | – | – | – | – | – | 1.03 | 0.757 | 0.696 | 0.851 | 0.573 | –
NCI-H1623 | – | – | – | – | – | – | – | – | – | – | – | – | – | – | 0.548 | 0.502 | 0.499 | 0.572 | 0.52 | –
IA-LM | – | – | – | – | – | 0.299 | 0.278 | 0.0319 | 0.0054 | 0.843 | 0.743 | 0.612 | 0.327 | 0.0686 | – | – | – | – | – | 0.321
NCI-H1563 | – | – | – | – | – | 0.68 | 0.655 | 0.538 | 0.486 | 0.917 | 0.922 | 0.934 | 0.867 | 0.791 | 0.457 | 0.437 | 0.453 | 0.457 | 0.469 | 0.622
NCI-H1648 | 0.208 | 0.296 | 0.258 | 0.261 | 0.275 | – | – | – | – | – | – | – | – | – | – | – | – | – | – | –

Source: the supplement of paper PMC10307832
